How the values were obtained:
Assay in all cases: relative viability (nuclei count vs DMSO), 5 days (fraction); higher = more cells survive
ABC-1 = system: ABC-1
Procedure, shortened: (§1)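 After 5 days of treatment, lung cancer cells in 1536-well plates were fixed and stained in a single step (final 0.05% Triton X-100, 1% formaldehyde, 1 ug/ml Hoechst) and their nuclei counted on 4× images. Treatment had been applied by pin tool the day after seeding as one drug alone or as a fixed anchor-drug dose with five library-drug doses (not always all listed) in √10 steps. Relative viability is the nuclei count of treated wells divided by that of vehicle wells, and values are medians of duplicate plates.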

COR-L 105 = system: COR-L 105
Procedure, shortened: as §1

NCI-H3122 = system: NCI-H3122
Procedure, shortened: as §1

NCI-H1666 = system: NCI-H1666
Procedure, shortened: as §1

NCI-H727 = system: NCI-H727
Procedure, shortened: as §1

NCI-H2170 = system: NCI-H2170
Procedure, shortened: as §1

PC-14 = system: PC-14
Procedure, shortened: as §1

NCI-H460 = system: NCI-H460
Procedure, shortened: as §1

LK-2 = system: LK-2
Procedure, shortened: as §1

LOU-NH91 = system: LOU-NH91
Procedure, shortened: as §1

NCI-H1650 = system: NCI-H1650
Procedure, shortened: as §1

NCI-H1437 = system: NCI-H1437
Procedure, shortened: as §1

CAL-12T = system: CAL-12T
Procedure, shortened: as §1

201T = system: 201T
Procedure, shortened: as §1

NCI-H661 = system: NCI-H661
Procedure, shortened: as §1

BEN = system: BEN
Procedure, shortened: as §1

EKVX = system: EKVX
Procedure, shortened: as §1

HARA = system: HARA
Procedure, shortened: as §1

NCI-H2009 = system: NCI-H2009
Procedure, shortened: as §1

NCI-H441 = system: NCI-H441
Procedure, shortened: as §1

HCC-366 = system: HCC-366
Procedure, shortened: as §1

In the case of `COc1nc(C)cnc1NS(=O)(=O)c1cccnc1-c1ccc(-c2nnco2)cc1` [Zibotentan] + CS(=O)(=O)N1CCN(Cc2cc3nc(-c4cccc5[nH]ncc45)nc(N4CCOCC4)c3s2)CC1 [Pictilisib] (partner 1 µM), the relative viability (ABC-1; first compound 0.08 µM) is reported as 0.686, the relative viability (ABC-1; first compound 0.253 µM) is reported as 0.623 and the relative viability (ABC-1; first compound 0.8 µM) is reported as 0.772. It also gave a relative viability (ABC-1; first compound 2.53 µM) of 0.646, a relative viability (COR-L 105; first compound 0.08 µM) of 0.523 and a relative viability (COR-L 105; first compound 0.253 µM) of 0.357. The relative viability (COR-L 105; first compound 0.8 µM) was 0.477, the relative viability (COR-L 105; first compound 2.53 µM) was 0.502 and the relative viability (NCI-H3122; first compound 0.08 µM) was 0.568. The relative viability (NCI-H3122; first compound 0.253 µM) was 0.519, the relative viability (NCI-H3122; first compound 0.8 µM) was 0.576 and the relative viability (NCI-H3122; first compound 2.53 µM) was 0.539. For the same compound, the relative viability (NCI-H1666; first compound 0.08 µM) was 0.553, the relative viability (NCI-H1666; first compound 0.253 µM) was 0.361 and the relative viability (NCI-H1666; first compound 0.8 µM) was 0.467. For the same compound, the relative viability (NCI-H1666; first compound 2.53 µM) was 0.429, the relative viability (NCI-H727; first compound 0.08 µM) was 0.567 and the relative viability (NCI-H727; first compound 0.253 µM) was 0.38. The relative viability (NCI-H727; first compound 0.8 µM) was 0.395, the relative viability (NCI-H727; first compound 2.53 µM) was 0.483 and the relative viability (NCI-H2170; first compound 0.08 µM) was 0.282. For the same compound, the relative viability (NCI-H2170; first compound 0.253 µM) was 0.295, the relative viability (NCI-H2170; first compound 0.8 µM) was 0.316 and the relative viability (NCI-H2170; first compound 2.53 µM) was 0.368. It also gave a relative viability (PC-14; first compound 0.08 µM) of 0.91, a relative viability (PC-14; first compound 0.253 µM) of 0.8 and a relative viability (PC-14; first compound 0.8 µM) of 0.793. It also gave a relative viability (PC-14; first compound 2.53 µM) of 0.628, a relative viability (NCI-H460; first compound 0.08 µM) of 0.351 and a relative viability (NCI-H460; first compound 0.253 µM) of 0.336. It also gave a relative viability (NCI-H460; first compound 0.8 µM) of 0.327, a relative viability (NCI-H460; first compound 2.53 µM) of 0.38 and a relative viability (LK-2; first compound 0.08 µM) of 0.542. For the same compound, the relative viability (LK-2; first compound 0.253 µM) was 0.471, the relative viability (LK-2; first compound 0.8 µM) was 0.55 and the relative viability (LK-2; first compound 2.53 µM) was 0.603. It also gave a relative viability (LOU-NH91; first compound 0.08 µM) of 0.497, a relative viability (LOU-NH91; first compound 0.253 µM) of 0.468 and a relative viability (LOU-NH91; first compound 0.8 µM) of 0.515. For the same compound, the relative viability (LOU-NH91; first compound 2.53 µM) was 0.54, the relative viability (NCI-H1650; first compound 0.08 µM) was 0.675 and the relative viability (NCI-H1650; first compound 0.8 µM) was 0.638. It also gave a relative viability (NCI-H1650; first compound 2.53 µM) of 0.658, a relative viability (NCI-H1437; first compound 0.08 µM) of 0.462 and a relative viability (NCI-H1437; first compound 0.253 µM) of 0.334. It also gave a relative viability (NCI-H1437; first compound 0.8 µM) of 0.366, a relative viability (NCI-H1437; first compound 2.53 µM) of 0.582 and a relative viability (CAL-12T; first compound 0.08 µM) of 0.395. For the same compound, the relative viability (CAL-12T; first compound 0.8 µM) was 0.453, the relative viability (CAL-12T; first compound 2.53 µM) was 0.513 and the relative viability (201T; first compound 0.08 µM) was 0.725. The relative viability (201T; first compound 0.253 µM) was 0.599, the relative viability (201T; first compound 0.8 µM) was 0.628 and the relative viability (201T; first compound 2.53 µM) was 0.711. For the same compound, the relative viability (NCI-H661; first compound 0.08 µM) was 0.43, the relative viability (NCI-H661; first compound 0.253 µM) was 0.302 and the relative viability (NCI-H661; first compound 0.8 µM) was 0.391. For the same compound, the relative viability (NCI-H661; first compound 2.53 µM) was 0.314, the relative viability (BEN; first compound 0.08 µM) was 0.652 and the relative viability (BEN; first compound 0.253 µM) was 0.448. The relative viability (BEN; first compound 0.8 µM) was 0.55, the relative viability (BEN; first compound 2.53 µM) was 0.552 and the relative viability (EKVX; first compound 0.08 µM) was 0.465. For the same compound, the relative viability (EKVX; first compound 0.253 µM) was 0.451, the relative viability (EKVX; first compound 0.8 µM) was 0.439 and the relative viability (EKVX; first compound 2.53 µM) was 0.453. For the same compound, the relative viability (HARA; first compound 0.08 µM) was 0.443, the relative viability (HARA; first compound 0.253 µM) was 0.438 and the relative viability (HARA; first compound 0.8 µM) was 0.351. The relative viability (HARA; first compound 2.53 µM) was 0.57, the relative viability (NCI-H2009; first compound 0.08 µM) was 0.889 and the relative viability (NCI-H2009; first compound 0.253 µM) was 0.774. It also gave a relative viability (NCI-H2009; first compound 0.8 µM) of 0.822, a relative viability (NCI-H2009; first compound 2.53 µM) of 0.886 and a relative viability (NCI-H441; first compound 0.08 µM) of 0.518. It also gave a relative viability (NCI-H441; first compound 0.253 µM) of 0.39, a relative viability (NCI-H441; first compound 0.8 µM) of 0.545 and a relative viability (NCI-H441; first compound 2.53 µM) of 0.632. The relative viability (HCC-366; first compound 0.08 µM) was 0.145, the relative viability (HCC-366; first compound 0.253 µM) was 0.156 and the relative viability (HCC-366; first compound 0.8 µM) was 0.141. For the same compound, the relative viability (HCC-366; first compound 2.53 µM) was 0.148.
